Measurements from article PMC11771932, “Integrated in silico and in vitro exploration of the anti-VEGFR-2 activities of a semisynthetic xanthine alkaloid inhibiting breast cancer” (PLOS ONE, 2025).
Read-outs that look alike come from different tables or passages of the source.

Columns and labels:
Rat [1] = details: cited from earlier work
Mouse = tested on: Mouse; parameters: method as in earlier work; details: structural similar compounds of the TOPKAT report; ref CPDB; cited from earlier work
Rats = details: structural similar compounds of the TOPKAT report; ref NIIRDN 6;688;82, 85ARAE 4;118;76/77, DRFUD4 2;393;77, YRTMA6 9;11;78, FMCHA2 -;C149;89, ARZNAD 30;2023;80; cited from earlier work
Rat [2] = details: structural similar compounds of the TOPKAT report; ref NCI/NTP TR-358, NCI/NTP TR-138, NCI/NTP TR-336; cited from earlier work
MCF7 cell line = assay: In vitro cytotoxicity, MCF7; type: cell-based
Method: (§1) The potential of T-1-NBAB as an anticancer agent has been highlighted through both in silico and in vitro studies, primarily due to its anti-VEGFR-2 properties. To further investigate T-1-NBAB’s cytotoxicity, it was tested against breast carcinoma epithelial cancer cell lines MCF7 and T47D.
(§2) The cytotoxic potential of T-1-NBAB against MCF7 and T47D cell lines was accomplished by MTT procedure.
(§3) Mammalian cell lines culture
(§4) MCF7 and T47D cell lines were cultured on DMEM media. The cultured media were supplemented with 200 mM L-glutamine, 10.0% fetal bovine serum (Lonza), and 1.0% penicillin/streptomycin. Cells were seeded into 25.0 cm tissue culture flasks and incubated at 37◦C in a 5.0% CO2 incubator for 24 h or till confluency.
(§5) The safety profiles of the tested compounds were checked on one non-cancerous cell line (vero) […]
(§6) A portion of 100.0 µl of 6×10^4 cell/ml cells was seeded into each well of a 96-well plate and then the plates were incubated at 37 °C in a humidified 5.0% CO2 incubator for 24 h. […]
(§7) The inoculated plates were incubated at the same growth conditions for another 24 h. At the end of incubation, cellular viability was assessed using MTS assay kit (Promega) according to […]
(§8) Anticancer activities of the tested compounds against MCF7 and T47D cell lines were quantified using MTS assay kit (Promega) as described by the Manufacturer. […]

human VEGFR-2 = biological target: T1, human VEGFR-2 (Homo sapiens, UniProt P35968); assay: In vitro VEGFR-2 inhibition (Human VEGFR-2 ELISA kit); type: biochemical
T1 construct: MCF- 7 cell line; endogenous in cells; host or cells: MCF-7

MCF7 cells [3] = assay: Wound healing and migration assay; type: cell-based
Method: The wound healing assay, a simple and cost-effective procedure, can assess the mobility and repair capacity of cancerous cells. In this method, a scratch is created on a layer of cancer cells, and the initial width is recorded. The healing of the scratch was observed periodically for both untreated and treated cells. Throughout the study, images of the scratched areas from both groups were compared at the 0-hour and 48-hour time points.
Wound healing assay was accomplished for T-1-NBAB utilizing MCF7 cell lines. […]
Wound healing and migration assay
The wound healing assay allows the researcher to study cell migration and cell interactions. In […]
some cases also single cell migration can be analyzed and this assay can be imaged […]
1. Cells were seeded in 6 multi-well plates and cultured until confluent. It is important that all the cultures are confluent at the start of the experiment.
2. (yellow) pipette tip was used to make a straight scratch, simulating a wound. Often we make a scratch keeping the pipette tip under an angle of around 30 degrees to keep the scratch width limited. This allows imaging of both wound edges using the 10x objective.
The following equations are applied to calculate the healing and migration ratio Rat of migration (RM) = (wi – wf ) / t
Wi =average of intial wound width um
Wf= average of final wound width um
T = time span of the assay in hours
Percentage of wound clouser % ={ (At=0 – At=∆t ) / At=0 } 100 […]
At=∆t = wound area after n hours
Area difference % = (Ai – Af )

T47D cell line = assay: In vitro cytotoxicity, T47D; type: cell-based
Method: as §1, §2, §3, §4, §5, §6, §7, §8

[4] = tested on: Vero (normal epithelial) cell lines; assay: Safety assay on non-cancerous Vero cells; type: cell-based; details: Chlorocebus sabaeus, read-out: IC50 against Vero
Method: as §1
The cytotoxic potential of T-1-NBAB against non-cancerous (Vero) cell lines was accomplished by MTT procedure.
as §3, §4, §5
A portion of 100.0 µl of 6×10^4 cell/ml cells was seeded into each well of a 96-well plate and then the plates were incubated at 37 °C in a humidified 5.0% CO2 incubator for 24 h. At the end of incubation period, the exhausted medium was replaced with 100.0 µl of different concentrations of the designated treatment (prepared in RPMI medium starting from 1.0 mM).
as §7

MCF7 cells [5] = assay: Apoptosis assay, flow cytometry, Annexin V and PI double staining; type: cell-based
Method: The T-1-NBAB’s effect as an apoptotic agent was assessed via flow cytometry analysis, on MCF7 cells using Annexin V and PI double staining.
T-1-NBAB’s apoptotic potentials and effect on MCF7 cell cycle were accomplished by flow cytometry analysis technique.
In-vitro anticancer activity
Anticancer activities of the tested compounds against MCF7 and T47D cell lines were quantified using MTS assay kit (Promega) as described by the Manufacturer.
The selectivity index values of the tested compounds on cancer cells were calculated as described by Koch et al., with slight modifications; SI=IC50nc/IC50cc, where IC50nc: the IC50 value of the tested compound on normal cells and IC50cc: IC50 of the tested compound on cancer cell […]
In vitro EGFR kinase assay
The synthesized compound was estimated for their in vitro inhibition on human VEGFR-2 in MCF- 7 cell line; using ELISA kit. Firstly, a plate was used for the assay had been coated by an […]
2 inhibitor. Both standard and sample were added to the wells and incubated overnight at 4 ◦C, then washed. The biotinylated antibody was supplemented and further incubated for 1 h at room temperature. The unreacted, liberated antibody was then washed; followed by addition of HRP-conjugated streptavidin and incubated for 45 min at room temperature. Wells were washed and a TMB substrate solution was added and kept at room temperature for 30 min. Finally, the stop solution was added, and the intensity of the color produced was measured at 450 nm.
Concentration- inhibition response curve was established by GraphPad Prism 5.0. The IC 50 value was calculated as the concentration at which 50% of the cells could survive in comparison to […]
Flow cytometry analysis for apoptosis
Flow cytometry cell apoptosis analysis was used to investigate the apoptotic effect of the synthesized compound. […] The stained cells were measured using Epics XL-MCL™ Flow Cytometer and analyzed […]

VEGFR-2 = tested on: VEGFR-2; parameters: method as in PMID 35493991; details: read-out: VEGFR-2 inhibition IC50; cited from earlier work
[6] = structural similar compounds of the TOPKAT report, ref CPDB

T1 sequence (P35968 20-1356): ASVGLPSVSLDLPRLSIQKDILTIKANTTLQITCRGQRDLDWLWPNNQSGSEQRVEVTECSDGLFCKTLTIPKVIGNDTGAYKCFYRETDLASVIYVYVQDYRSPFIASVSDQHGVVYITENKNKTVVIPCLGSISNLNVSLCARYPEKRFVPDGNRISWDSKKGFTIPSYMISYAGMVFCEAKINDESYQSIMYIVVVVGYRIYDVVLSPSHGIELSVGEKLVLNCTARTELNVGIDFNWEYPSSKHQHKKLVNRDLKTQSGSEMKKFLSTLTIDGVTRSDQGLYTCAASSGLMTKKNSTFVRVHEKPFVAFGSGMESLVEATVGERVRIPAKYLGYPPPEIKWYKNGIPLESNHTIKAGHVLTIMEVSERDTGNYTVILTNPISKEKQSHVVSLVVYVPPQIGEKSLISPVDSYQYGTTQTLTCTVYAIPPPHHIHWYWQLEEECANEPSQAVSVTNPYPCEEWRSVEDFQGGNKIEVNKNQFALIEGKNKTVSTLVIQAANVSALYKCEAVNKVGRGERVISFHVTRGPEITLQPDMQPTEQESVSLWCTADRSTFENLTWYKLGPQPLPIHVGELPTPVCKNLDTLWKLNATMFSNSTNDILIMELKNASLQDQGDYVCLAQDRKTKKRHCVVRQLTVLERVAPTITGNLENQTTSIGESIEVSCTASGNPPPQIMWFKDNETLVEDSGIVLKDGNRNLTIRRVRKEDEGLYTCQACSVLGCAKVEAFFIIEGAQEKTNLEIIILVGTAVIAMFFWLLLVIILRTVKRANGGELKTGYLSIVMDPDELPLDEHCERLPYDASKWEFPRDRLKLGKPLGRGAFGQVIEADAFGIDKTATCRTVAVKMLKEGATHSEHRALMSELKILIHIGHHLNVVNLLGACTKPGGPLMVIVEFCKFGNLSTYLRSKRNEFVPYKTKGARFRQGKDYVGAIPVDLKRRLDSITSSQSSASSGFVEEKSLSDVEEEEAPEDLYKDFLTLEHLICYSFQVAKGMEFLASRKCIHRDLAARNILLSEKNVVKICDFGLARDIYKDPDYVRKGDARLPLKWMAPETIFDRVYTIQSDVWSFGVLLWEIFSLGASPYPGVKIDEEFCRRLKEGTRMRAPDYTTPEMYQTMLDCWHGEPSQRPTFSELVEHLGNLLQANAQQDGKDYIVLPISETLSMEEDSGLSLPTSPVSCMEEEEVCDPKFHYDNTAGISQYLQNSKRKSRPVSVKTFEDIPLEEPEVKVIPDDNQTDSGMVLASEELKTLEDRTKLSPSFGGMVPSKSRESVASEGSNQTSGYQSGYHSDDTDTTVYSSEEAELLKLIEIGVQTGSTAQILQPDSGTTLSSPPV

## O=[N+]([O-])c1ccc(-c2nc(N(CCO)CCO)c3ccccc3n2)s1 [4-Bis(2-hydroxyethyl)amino-2-(5-nitro-2-thienyl)quinazoline]
Rat [1]; [6]
  Carcinogenic potency TD50 rat, Actual Endpoint (-log C): 5.06 -log C

## Cc1cccc(Nc2cc(Cl)nc(SCC(=O)NCCO)n2)c1C [4-Chloro-6-(2,3-xylidino)-2-pyrimidinylthio(N-b-hydroxyethyl) acetamide]
Mouse
  Carcinogenic potency TD50 mouse, Actual Endpoint (-log C): 3.915 -log C

## CC(C)(Oc1ccc(CCNC(=O)c2ccc(Cl)cc2)cc1)C(=O)O [BEZAFIBRATE]
Rats
  Rat oral LD50, Actual Endpoint (-log C): 1.946 -log C

## COC(=O)Nc1nc2ccccc2n1C(=O)NCCCCCC#N [CARBAMIC ACID; [1-[(5-CYANOPENTYL)CARBAMOYL]BENZIMIDAZOL-2-YL]-; METHYL ESTER]
Rats
  Rat oral LD50, Actual Endpoint (-log C): 2.12 -log C

## COC(=O)Nc1nc2cc(C(=O)c3ccc(F)cc3)ccc2[nH]1 [FLUBENDAZOLE]
Rats
  Rat oral LD50, Actual Endpoint (-log C): 2.088 -log C

## CC(C)n1c(/C=C/C(O)CC(O)CC(=O)O)c(-c2ccc(F)cc2)c2ccccc21 (stereo not drawn) [Fluvastatin, reference compound]
Rat [1]
  Carcinogenic potency TD50 rat, Actual Endpoint (-log C): 3.517 -log C

## C[C@@H]1Cc2c(Cl)cc(C(=O)N[C@@H](Cc3ccccc3)C(=O)O)c(O)c2C(=O)O1 [OCHRATOXIN]
Rat [2]
  Rat maximum tolerated dose gavage, Actual Endpoint (-log C): 6.284 -log C

## C[C@@H]1Cc2c(Cl)cc(C(=O)N[C@@H](Cc3ccccc3)C(=O)O)c(O)c2C(=O)O1 [Ochratoxin A]
Mouse
  Carcinogenic potency TD50 mouse, Actual Endpoint (-log C): 4.799 -log C
Rat [1]; [6]
  Carcinogenic potency TD50 rat, Actual Endpoint (-log C): 6.473 -log C

## NS(=O)(=O)c1cc(C(=O)O)cc(N2CCCC2)c1Oc1ccccc1 [PIRETANIDE]
Rats
  Rat oral LD50, Actual Endpoint (-log C): 1.811 -log C

## Cc1noc(NS(=O)(=O)c2ccc(N)cc2)c1C [SULFISOOXAZOLE]
Rat [2]
  Rat maximum tolerated dose gavage, Actual Endpoint (-log C): 2.825 -log C

## Cn1cnc2c1c(=O)n(CC(=O)Nc1ccc(C(=O)NCc3ccccc3)cc1)c(=O)n2C [T-1-NBAB]
MCF7 cell line; Homo sapiens, breast cancer cell line MCF7, read-out: IC50 against MCF7
  IC50: 16.9 µM
MCF7 cell line; IC50 normal cells (Vero) / IC50 MCF7
  Selectivity index (SI) against MCF7: 4.1
Human VEGFR-2
  IC50: 0.115 µM
MCF7 cells [3]; 0 h vs 48 h, control 659.8333
  area difference: 112 µm²
MCF7 cells [3]; 48 h, control 13.74681
  RM (rate of migration): 2.322 µm/h
MCF7 cells [3]; 48 h, control 65.96135
  Wound closure %: 12.16%
MCF7 cells [3]; mean of five values
  Scratch area at 0h: 917
  Scratch area at 48 h: 805.5
  Scratch width at 0h: 916.0155
  Scratch width at 48 h: 804.5532
MCF7 cells [3]; untreated control closed 65.9%
  Reduction of scratch width after 48 hours: 12%
T47D cell line; Homo sapiens, breast cancer cell line T47D, read-out: IC50 against T47D
  IC50: 61.2 µM
T47D cell line; IC50 normal cells (Vero) / IC50 T47D
  Selectivity index (SI) against T47D: 1.1
[4]
  IC50: 68.4 µM
MCF7 cells [5]; control 0.12
  Apoptosis Late: 2.88%
MCF7 cells [5]; control 0.72
  Apoptosis Early: 3.51%
MCF7 cells [5]; control 2.21
  Necrosis: 9.37%

## CC1(C)S[C@@H]2[C@H](NC(=O)COc3ccccc3)C(=O)N2[C@H]1C(=O)O [[…]]
Rat [2]
  Rat maximum tolerated dose gavage, Actual Endpoint (-log C): 2.545 -log C

## Cc1nc2ccccc2n(CC(=O)Nc2ccc(C(=O)Nc3cccc(Cl)c3)cc2)c1=O [compound V]
VEGFR-2
  IC50: 0.0027 µM
